Measurements taken from patent publication US20250368633A1, “AZEPINE FUSED RING COMPOUND AS RIPK1 INHIBITOR AND USE THEREOF” (ARTIVILA BIOPHARMA, priority 2022, published 2025).

Experiments:
RIPK1 kinase = molecular target: T1, RIPK1 kinase (Homo sapiens, UniProt Q13546); test: In vitro RIPK1 kinase activity IC50 assay (ADP-Glo); format: biochemical; conditions: ATP 10 μM; MBP substrate 100 μg/mL; 8 concentration points; read-out: IC50 range of compounds for RIPK1 kinase activity
T1 construct: purchased Promega VA7593
T1 sequence (Q13546 1-671): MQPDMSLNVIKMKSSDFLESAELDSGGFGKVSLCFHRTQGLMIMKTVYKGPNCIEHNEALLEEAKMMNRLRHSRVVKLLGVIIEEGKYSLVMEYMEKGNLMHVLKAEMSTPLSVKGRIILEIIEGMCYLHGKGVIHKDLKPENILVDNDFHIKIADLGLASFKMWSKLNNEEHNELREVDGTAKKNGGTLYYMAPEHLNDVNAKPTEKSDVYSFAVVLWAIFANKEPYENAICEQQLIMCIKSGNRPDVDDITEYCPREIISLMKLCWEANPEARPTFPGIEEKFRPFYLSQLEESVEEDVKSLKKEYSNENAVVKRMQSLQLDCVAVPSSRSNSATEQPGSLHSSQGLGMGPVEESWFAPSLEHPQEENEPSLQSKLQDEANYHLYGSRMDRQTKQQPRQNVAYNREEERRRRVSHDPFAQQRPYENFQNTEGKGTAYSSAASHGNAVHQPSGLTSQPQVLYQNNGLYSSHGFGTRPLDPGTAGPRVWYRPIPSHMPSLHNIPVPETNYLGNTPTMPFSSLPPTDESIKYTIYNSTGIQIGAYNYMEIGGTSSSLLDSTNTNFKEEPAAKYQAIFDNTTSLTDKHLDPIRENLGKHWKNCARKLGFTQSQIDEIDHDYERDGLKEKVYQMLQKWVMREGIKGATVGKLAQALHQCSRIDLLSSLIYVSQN
Description: RIPK1 kinase activity was assayed using the ADP-Glo assay and RIPK1 kinase reaction system (Promega, catalog number: VA7593). The RIPK1 kinase activity assay was performed according to the Promega kit manual.
The experimental method was briefly described as below. The concentration of RIPK1 kinase in the RIPK1 kinase reaction system was determined by kinase titration and S/B10. The compound was diluted with 1× kinase buffer D (1% DMSO), 1 μL of 1 mM compound DMSO stock solution was added to 19 μL 1× kinase buffer D, and the compound was serially diluted with 1× kinase buffer D at a ratio of 1:5, for a total of 8 concentration points, and a control with the same DMSO volume was set. RIPK1 kinase was diluted with 1× kinase buffer D. 2.5×ATP/substrate was diluted with 1× kinase buffer D. The final concentration of ATP in the kinase reaction system was 10 μM. The final concentration of MBP substrate was 100 μg/mL. 1 μL of diluted compound and 2 μL of diluted RIPK1 kinase were mixed, incubated at room temperature for 15 minutes, 2 μL of 2.5×ATP/substrate was added, mixed, and incubated at room temperature for 1 hour. 5 μL ADP-Glo reagent was added to each well and incubated at room temperature for 1 hour. 10 μL ADP detection reagent was added to each well and incubated at room temperature for another 0.5-1 hour. The chemiluminescent signal was read with a microplate reader and the kinase activity inhibition rate was calculated. IC50 was obtained by fitting the nonlinear regression curve log [inhibitor] vs. response-variable slope (four parameters) in GraphPad Prism.

U937 cells = test: EC50 of necroptosis inhibition in U937 cells (TSZ-induced, CellTiter-Glo); format: cell-based; conditions: Homo sapiens, U-937; TSZ (hTNF-α, SM-164, Z-VAD-FMK) 20 hours; 10 concentration points; read-out: EC50 intervals of necroptosis inhibition in U937 cells
Summary of the method: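 U937 cells pretreated 15 min with compound (10-point, 1:3 series), then necroptosis induced by TSZ (hTNF-α, SM-164, Z-VAD-FMK) for 20 h at 37 °C. Viability measured as ATP by CellTiter-Glo luminescence; inhibition normalised to untreated and TSZ-only wells, EC50 from four-parameter fit.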

Row | IC50 (RIPK1 kinase) [nM] | SMILES | EC50 (U937 cells) [nM]
1 | < 100 | CC(Cc1ccccc1)NC(=O)C(=O)N[C@H]1COc2ccc(C#CCCO)cc2N(C)C1=O (mixture of isomers) [Example 37, N^1-((S)-7-(4-hydroxybut-1-yn-1-yl)-5-methyl-4-oxo-2,3,4,5-tetrahydrobenzo[b][1,4]oxazepin-3-yl)-N^2-(1-phenylpropan-2-yl)oxalamide] | 100 to 500
2 | < 100 | CC(NC(=O)C(=O)N[C@H]1COc2ccc(C#CCCO)cc2N(C)C1=O)c1ccccc1 (mixture of isomers) [Example 41, N^1-((S)-7-(4-hydroxybut-1-yn-1-yl)-5-methyl-4-oxo-2,3,4,5-tetrahydrobenzo[b][1,4]oxazepin-3-yl)-N^2-(1-phenylethyl)oxalamide] | < 100
3 | < 100 | CN1CCC(CC#Cc2ccc3c(c2)N(C)C(=O)[C@@H](NC(=O)C(=O)NCCc2ccccc2)CO3)C1=O (mixture of isomers) [Example 82, N^1-((3S)-5-methyl-7-(3-(1-methyl-2-oxopyrrolidin-3-yl)prop-1-yn-1-yl)-4-oxo-2,3,4,5-tetrahydrobenzo[b][1,4]oxazepin-3-yl)-N^2-phenethyloxalamide] | < 100
4 | < 100 | CN1C(=O)[C@@H](NC(=O)C(=O)NCCc2cccc(F)c2)COc2ccc(C#CCN3CCC(O)C3)cc21 (mixture of isomers) [Example 113, N^1-(3-fluorophenethyl)-N^2-((3S)-7-(3-(3-hydroxypyrrolidin-1-yl)prop-1-yn-1-yl)-5-methyl-4-oxo-2,3,4,5-tetrahydrobenzo[b][1,4]oxazepin-3-yl)oxalamide] | < 100
5 | < 100 | C[C@@H](NC(=O)C(=O)N[C@H]1COc2ccc(C#CCN3CCC(O)C3)cc2N(C)C1=O)c1ccccc1 (mixture of isomers) [Example 126, N^1-((3S)-7-(3-(3-hydroxypyrrolidin-1-yl)prop-1-yn-1-yl)-5-methyl-4-oxo-2,3,4,5-tetrahydrobenzo[b][1,4]oxazepin-3-yl)-N^2-((R)-1-phenylethyl)oxalamide] | < 100
6 | < 100 | CC(CNC(=O)C(=O)N[C@H]1COc2ccc(C#CCCO)cc2N(C)C1=O)c1ccccc1 (mixture of isomers) [Example 154, N^1-((S)-7-(4-hydroxybut-1-yn-1-yl)-5-methyl-4-oxo-2,3,4,5-tetrahydrobenzo[b][1,4]oxazepin-3-yl)-N^2-(2-phenylpropyl)oxalamide] | < 100
7 | < 100 | CN1C(=O)[C@@H](NC(=O)C(=O)NCCc2ccccc2)COc2ccc(C#Cc3cccnc3)cc21 [Example 13, (S)—N^1-(5-methyl-4-oxo-7-(pyridin-3-ylethynyl)-2,3,4,5-tetrahydrobenzo[b][1,4]oxazepin-3-yl)-N^2-phenethyloxalamide] | < 100
8 | < 100 | CN1C(=O)[C@@H](NC(=O)C(=O)NCCc2ccccc2)COc2ccc(C#Cc3ccsc3)cc21 [Example 17, (S)—N^1-(5-methyl-4-oxo-7-(thiophen-3-ylethynyl)-2,3,4,5-tetrahydrobenzo[b][1,4]oxazepin-3-yl)-N^2-phenethyloxalamide] | < 100
9 | < 100 | CN1C(=O)[C@@H](NC(=O)C(=O)NCCc2ccccc2)COc2ccc(C#C[Si](C)(C)C)cc21 [Example 18, (S)—N^1-(5-methyl-4-oxo-7-((trimethylsilyl)ethynyl)-2,3,4,5-tetrahydrobenzo[b][1,4]oxazepin-3-yl)-N^2-phenethyloxalamide] | < 100
10 | < 100 | CC#Cc1ccc2c(c1)N(C)C(=O)[C@@H](NC(=O)C(=O)NCCc1ccccc1)CO2 [Example 19, (S)—N^1-(5-methyl-4-oxo-7-(prop-1-yn-1-yl)-2,3,4,5-tetrahydrobenzo[b][1,4]oxazepin-3-yl)-N^2-phenethyloxalamide] | < 100
11 | < 100 | CN1C(=O)[C@@H](NC(=O)C(=O)NCCc2ccccc2)COc2ccc(C#CC3CCOCC3)cc21 [Example 21, (S)—N^1-(5-methyl-4-oxo-7-((tetrahydro-2H-pyran-4-yl)ethynyl)-2,3,4,5-tetrahydrobenzo[b][1,4]oxazepin-3-yl)-N^2-phenethyloxalamide] | < 100
12 | < 100 | CN1C(=O)[C@@H](NC(=O)C(=O)NCCc2ccccc2)COc2ccc(C#Cc3cnn(C)c3)cc21 [Example 22, (S)—N^1-(5-methyl-7-((1-methyl-1H-pyrazol-4-yl)ethynyl)-4-oxo-2,3,4,5-tetrahydrobenzo[b][1,4]oxazepin-3-yl)-N^2-phenethyloxalamide] | < 100
13 | < 100 | CN1C(=O)[C@@H](NC(=O)C(=O)NCCc2ccccc2)COc2ccc(C#CC3CCCNC3)cc21 (stereo partly drawn) [Example 24, N^1-((3S)-5-methyl-4-oxo-7-(piperidin-3-ylethynyl)-2,3,4,5-tetrahydrobenzo[b][1,4]oxazepin-3-yl)-N^2-phenethyloxalamide] | < 100
14 | < 100 | CN1C(=O)[C@@H](NC(=O)C(=O)NCCc2ccccc2)COc2ccc(C#Cc3cnc4cccnn34)cc21 [Example 25, (S)—N^1-(7-(imidazo[1,2-b]pyridazin-3-ylethynyl)-5-methyl-4-oxo-2,3,4,5-tetrahydrobenzo[b][1,4]oxazepin-3-yl)-N^2-phenethyloxalamide] | < 100
15 | < 100 | CN1C(=O)[C@@H](NC(=O)C(=O)NCCc2ccccc2)COc2ccc(C#CC(C)(C)O)cc21 [Example 29, (S)—N^1-(7-(3-hydroxy-3-methylbut-1-yn-1-yl)-5-methyl-4-oxo-2,3,4,5-tetrahydrobenzo[b][1,4]oxazepin-3-yl)-N^2-phenethyloxalamide] | < 100
16 | < 100 | CN1C(=O)[C@@H](NC(=O)C(=O)NCCc2ccccc2)COc2ccc(C#CCCO)cc21 [Example 31, (S)—N^1-(7-(4-hydroxybut-1-yn-1-yl)-5-methyl-4-oxo-2,3,4,5-tetrahydrobenzo[b][1,4]oxazepin-3-yl)-N^2-phenethyloxalamide] | < 100
17 | < 100 | CN1C(=O)[C@@H](NC(=O)C(=O)NCc2ccccc2)COc2ccc(C#CCCO)cc21 [Example 32, (S)—N^1-benzyl-N^2-(7-(4-hydroxybut-1-yn-1-yl)-5-methyl-4-oxo-2,3,4,5-tetrahydrobenzo[b][1,4]oxazepin-3-yl)oxalamide] | < 100
18 | < 100 | CN1C(=O)[C@@H](NC(=O)C(=O)NCCc2ccccc2F)COc2ccc(C#CCCO)cc21 [Example 33, (S)—N^1-(2-fluorophenethyl)-N^2-(7-(4-hydroxybut-1-yn-1-yl)-5-methyl-4-oxo-2,3,4,5-tetrahydrobenzo[b][1,4]oxazepin-3-yl)oxalamide] | < 100
19 | < 100 | CN1C(=O)[C@@H](NC(=O)C(=O)NCCc2cccc(F)c2)COc2ccc(C#CCCO)cc21 [Example 34, (S)—N^1-(3-fluorophenethyl)-N^2-(7-(4-hydroxybut-1-yn-1-yl)-5-methyl-4-oxo-2,3,4,5-tetrahydrobenzo[b][1,4]oxazepin-3-yl)oxalamide] | < 100
20 | < 100 | CN1C(=O)[C@@H](NC(=O)C(=O)NCCc2ccc(F)cc2)COc2ccc(C#CCCO)cc21 [Example 35, (S)—N^1-(4-fluorophenethyl)-N^2-(7-(4-hydroxybut-1-yn-1-yl)-5-methyl-4-oxo-2,3,4,5-tetrahydrobenzo[b][1,4]oxazepin-3-yl)oxalamide] | 100 to 500
21 | < 100 | CN1C(=O)[C@@H](NC(=O)C(=O)NCCc2cc(F)cc(F)c2)COc2ccc(C#CCCO)cc21 [Example 36, (S)—N^1-(3,5-difluorophenethyl)-N^2-(7-(4-hydroxybut-1-yn-1-yl)-5-methyl-4-oxo-2,3,4,5-tetrahydrobenzo[b][1,4]oxazepin-3-yl)oxalamide] | < 100
